Experimental data from patent publication US20020111274A1, “1-alkyl-3-[1-(substituted phenyl) benzotriazol-6-yl] uracils” (BASF Aktiengesellschaft, priority 2000, published 2002).

Assays:
Design in all cases: scale not given here
SETVI Foxtail, Green [1] = test: Postemergence herbicidal evaluation, SETVI; format: in vivo, Setaria viridis, (L.) Beau; settings: postemergence spray, rated about two-three weeks after treatment
Outline: (§1)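 For this test, compound in an 80/20 acetone/water vehicle with 1.0% seed oil was sprayed over two-week-old seedlings at about 0.006 to 0.400 kg per hectare. Injury was assessed visually two to three weeks on.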

ECHOG Barnyardgrass [2] = test: Preemergence herbicidal evaluation, ECHOG; format: in vivo, Echinochloa crus-galli, (L.) Beau; settings: preemergence
Outline: (§2)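 First, seed is blended with potting soil and sown over roughly an inch of soil per cup. Next, the surface is sprayed with an aqueous acetone solution delivering about 0.013–0.800 kg/ha. Finally, cups are grown in the greenhouse and rated after 4–5 weeks.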

ZEAMX Corn, Field [3] = test: Postemergence herbicidal evaluation, ZEAMX; format: in vivo, Zea mays, L. (Sammel-Bezeichnung); settings: postemergence spray, rated about two-three weeks after treatment
Outline: as §1

[4] = tested on: CHEAL Lambsquarters, Common; test: Preemergence herbicidal evaluation, CHEAL; format: in vivo, Chenopodium album, L.; settings: preemergence
Outline: as §2

[5] = tested on: IPOHE Morningglory, Ivyleaf; test: Postemergence herbicidal evaluation, IPOHE; format: in vivo, Ipomoea hederacea, (L.) Jacq.; settings: postemergence spray, rated about two-three weeks after treatment
Outline: as §1

ABUTH Velvetleaf [6] = test: Postemergence herbicidal evaluation, ABUTH; format: in vivo, Abutilon theophrasti, Medic.; settings: postemergence spray, rated about two-three weeks after treatment
Outline: as §1

[7] = tested on: TRZAWR Wheat, Winter, cv Riband; test: Postemergence herbicidal evaluation, TRZAWR; format: in vivo, Triticum aestivum; settings: postemergence spray, rated about two-three weeks after treatment
Outline: as §1

[8] = tested on: TRZAWR Wheat, Winter, cv Riband; test: Preemergence herbicidal evaluation, TRZAWR; format: in vivo, Triticum aestivum; settings: preemergence
Outline: as §2

GALAP Galium [9] = test: Postemergence herbicidal evaluation, GALAP; format: in vivo, Galium aparine; settings: postemergence spray, rated about two-three weeks after treatment
Outline: as §1

ZEAMX Corn, Field [10] = test: Preemergence herbicidal evaluation, ZEAMX; format: in vivo, Zea mays, L. (Sammel-Bezeichnung); settings: preemergence
Outline: as §2

ORYSAT Rice, Tebonnet [11] = test: Postemergence herbicidal evaluation, ORYSAT; format: in vivo, Oryza sativa, (L.); settings: postemergence spray, rated about two-three weeks after treatment
Outline: as §1

[12] = tested on: IPOHE Morningglory, Ivyleaf; test: Preemergence herbicidal evaluation, IPOHE; format: in vivo, Ipomoea hederacea, (L.) Jacq.; settings: preemergence
Outline: as §2

[13] = tested on: CHEAL Lambsquarters, Common; test: Postemergence herbicidal evaluation, CHEAL; format: in vivo, Chenopodium album, L.; settings: postemergence spray, rated about two-three weeks after treatment
Outline: as §1

GALAP Galium [14] = test: Preemergence herbicidal evaluation, GALAP; format: in vivo, Galium aparine; settings: preemergence
Outline: as §2

ABUTH Velvetleaf [15] = test: Preemergence herbicidal evaluation, ABUTH; format: in vivo, Abutilon theophrasti, Medic.; settings: preemergence
Outline: as §2

GLXMAW Soybean, Williams [16] = test: Preemergence herbicidal evaluation, GLXMAW; format: in vivo, Glycine max, (L.) Merr. cv Williams; settings: preemergence
Outline: as §2

ECHOG Barnyardgrass [17] = test: Postemergence herbicidal evaluation, ECHOG; format: in vivo, Echinochloa crus-galli, (L.) Beau; settings: postemergence spray, rated about two-three weeks after treatment
Outline: as §1

AMBEL Ragweed, Common [18] = test: Preemergence herbicidal evaluation, AMBEL; format: in vivo, Ambrosia artemisifolia, L.; settings: preemergence
Outline: as §2

SETVI Foxtail, Green [19] = test: Preemergence herbicidal evaluation, SETVI; format: in vivo, Setaria viridis, (L.) Beau; settings: preemergence
Outline: as §2

ORYSAT Rice, Tebonnet [20] = test: Preemergence herbicidal evaluation, ORYSAT; format: in vivo, Oryza sativa, (L.); settings: preemergence
Outline: as §2

CASOB Sicklepod [21] = test: Preemergence herbicidal evaluation, CASOB; format: in vivo, Cassia obtusifolia, L.; settings: preemergence
Outline: as §2

CASOB Sicklepod [22] = test: Postemergence herbicidal evaluation, CASOB; format: in vivo, Cassia obtusifolia, L.; settings: postemergence spray, rated about two-three weeks after treatment
Outline: as §1

GLXMAW Soybean, Williams [23] = test: Postemergence herbicidal evaluation, GLXMAW; format: in vivo, Glycine max, (L.) Merr. cv Williams; settings: postemergence spray, rated about two-three weeks after treatment
Outline: as §1

AMBEL Ragweed, Common [24] = test: Postemergence herbicidal evaluation, AMBEL; format: in vivo, Ambrosia artemisifolia, L.; settings: postemergence spray, rated about two-three weeks after treatment
Outline: as §1

Cc1ccc(-n2nnc3cc(F)c(-n4c(=O)cc(C(F)(F)F)n(C)c4=O)cc32)cc1 [Example 19]
4.0: ECHCG herbicidal rating (ECHOG Barnyardgrass [2]; rate 0.032 kg/ha) | Postemergence herbicidal rating IPOHE ([5]; 0.008 kg/ha) | Postemergence herbicidal rating IPOHE ([5]; 0.016 kg/ha) | Postemergence herbicidal rating TRZAWR ([7]; 0.032 kg/ha) | Postemergence herbicidal rating GALAP (GALAP Galium [9]; 0.032 kg/ha) | Postemergence herbicidal rating GALAP (GALAP Galium [9]; 0.062 kg/ha) | ZEAMX herbicidal rating (ZEAMX Corn, Field [10]; rate 0.062 kg/ha) | Postemergence herbicidal rating ORYSAT (ORYSAT Rice, Tebonnet [11]; 0.062 kg/ha) | GLXMAW herbicidal rating (GLXMAW Soybean, Williams [16]; rate 0.125 kg/ha) | Postemergence herbicidal rating AMBEL (AMBEL Ragweed, Common [24]; 0.032 kg/ha)
3.5: Postemergence herbicidal rating TRZAWR ([7]; 0.016 kg/ha)
6.5: ZEAMX herbicidal rating (ZEAMX Corn, Field [10]; rate 0.125 kg/ha) | ABUTH herbicidal rating (ABUTH Velvetleaf [15]; rate 0.032 kg/ha) | Postemergence herbicidal rating GLXMAW (GLXMAW Soybean, Williams [23]; 0.032 kg/ha)
0.5: ECHCG herbicidal rating (ECHOG Barnyardgrass [2]; rate 0.016 kg/ha) | GLXMAW herbicidal rating (GLXMAW Soybean, Williams [16]; rate 0.016 kg/ha) | ORYSAT herbicidal rating (ORYSAT Rice, Tebonnet [20]; rate 0.032 kg/ha)
1.0: TRZAWR herbicidal rating ([8]; rate 0.032 kg/ha) | ZEAMX herbicidal rating (ZEAMX Corn, Field [10]; rate 0.016 kg/ha) | IPOHE herbicidal rating ([12]; rate 0.016 kg/ha) | Postemergence herbicidal rating CHEAL ([13]; 0.008 kg/ha) | ABUTH herbicidal rating (ABUTH Velvetleaf [15]; rate 0.016 kg/ha) | CASOB herbicidal rating (CASOB Sicklepod [21]; rate 0.016 kg/ha) | CASOB herbicidal rating (CASOB Sicklepod [21]; rate 0.125 kg/ha) | Postemergence herbicidal rating AMBEL (AMBEL Ragweed, Common [24]; 0.016 kg/ha)
5.5: Postemergence herbicidal rating ZEAMX (ZEAMX Corn, Field [3]; 0.062 kg/ha) | IPOHE herbicidal rating ([12]; rate 0.062 kg/ha) | AMBEL herbicidal rating (AMBEL Ragweed, Common [18]; rate 0.032 kg/ha) | Postemergence herbicidal rating GLXMAW (GLXMAW Soybean, Williams [23]; 0.016 kg/ha)
0.0: Postemergence herbicidal rating SETVI (SETVI Foxtail, Green [1]; 0.008 kg/ha) | Postemergence herbicidal rating SETVI (SETVI Foxtail, Green [1]; 0.016 kg/ha) | Postemergence herbicidal rating SETVI (SETVI Foxtail, Green [1]; 0.032 kg/ha) | TRZAWR herbicidal rating ([8]; rate 0.016 kg/ha) | Postemergence herbicidal rating GALAP (GALAP Galium [9]; 0.008 kg/ha) | GALAP herbicidal rating (GALAP Galium [14]; rate 0.016 kg/ha) | GALAP herbicidal rating (GALAP Galium [14]; rate 0.032 kg/ha) | GALAP herbicidal rating (GALAP Galium [14]; rate 0.062 kg/ha) | Postemergence herbicidal rating ECHCG (ECHOG Barnyardgrass [17]; 0.008 kg/ha) | Postemergence herbicidal rating ECHCG (ECHOG Barnyardgrass [17]; 0.016 kg/ha) | Postemergence herbicidal rating ECHCG (ECHOG Barnyardgrass [17]; 0.032 kg/ha) | Postemergence herbicidal rating ECHCG (ECHOG Barnyardgrass [17]; 0.062 kg/ha) | ORYSAT herbicidal rating (ORYSAT Rice, Tebonnet [20]; rate 0.016 kg/ha) | Postemergence herbicidal rating CASOB (CASOB Sicklepod [22]; 0.008 kg/ha) | Postemergence herbicidal rating CASOB (CASOB Sicklepod [22]; 0.016 kg/ha) | Postemergence herbicidal rating AMBEL (AMBEL Ragweed, Common [24]; 0.008 kg/ha)
1.5: ZEAMX herbicidal rating (ZEAMX Corn, Field [10]; rate 0.032 kg/ha) | IPOHE herbicidal rating ([12]; rate 0.032 kg/ha) | GLXMAW herbicidal rating (GLXMAW Soybean, Williams [16]; rate 0.032 kg/ha) | ORYSAT herbicidal rating (ORYSAT Rice, Tebonnet [20]; rate 0.062 kg/ha) | CASOB herbicidal rating (CASOB Sicklepod [21]; rate 0.032 kg/ha) | CASOB herbicidal rating (CASOB Sicklepod [21]; rate 0.062 kg/ha)
2.0: TRZAWR herbicidal rating ([8]; rate 0.062 kg/ha) | Postemergence herbicidal rating ORYSAT (ORYSAT Rice, Tebonnet [11]; 0.008 kg/ha) | Postemergence herbicidal rating CHEAL ([13]; 0.016 kg/ha) | ORYSAT herbicidal rating (ORYSAT Rice, Tebonnet [20]; rate 0.125 kg/ha) | Postemergence herbicidal rating CASOB (CASOB Sicklepod [22]; 0.032 kg/ha) | Postemergence herbicidal rating CASOB (CASOB Sicklepod [22]; 0.062 kg/ha)
8.0: IPOHE herbicidal rating ([12]; rate 0.125 kg/ha) | AMBEL herbicidal rating (AMBEL Ragweed, Common [18]; rate 0.062 kg/ha)
3.0: Postemergence herbicidal rating SETVI (SETVI Foxtail, Green [1]; 0.062 kg/ha) | TRZAWR herbicidal rating ([8]; rate 0.125 kg/ha) | Postemergence herbicidal rating GALAP (GALAP Galium [9]; 0.016 kg/ha) | Postemergence herbicidal rating ORYSAT (ORYSAT Rice, Tebonnet [11]; 0.032 kg/ha) | Postemergence herbicidal rating CHEAL ([13]; 0.032 kg/ha)
7.0: ECHCG herbicidal rating (ECHOG Barnyardgrass [2]; rate 0.062 kg/ha) | SETVI herbicidal rating (SETVI Foxtail, Green [19]; rate 0.032 kg/ha)
9.0: ECHCG herbicidal rating (ECHOG Barnyardgrass [2]; rate 0.125 kg/ha) | CHEAL herbicidal rating ([4]; rate 0.016 kg/ha) | CHEAL herbicidal rating ([4]; rate 0.032 kg/ha) | CHEAL herbicidal rating ([4]; rate 0.062 kg/ha) | CHEAL herbicidal rating ([4]; rate 0.125 kg/ha) | Postemergence herbicidal rating IPOHE ([5]; 0.032 kg/ha) | Postemergence herbicidal rating IPOHE ([5]; 0.062 kg/ha) | Postemergence herbicidal rating ABUTH (ABUTH Velvetleaf [6]; 0.008 kg/ha) | Postemergence herbicidal rating ABUTH (ABUTH Velvetleaf [6]; 0.016 kg/ha) | Postemergence herbicidal rating ABUTH (ABUTH Velvetleaf [6]; 0.032 kg/ha) | Postemergence herbicidal rating ABUTH (ABUTH Velvetleaf [6]; 0.062 kg/ha) | GALAP herbicidal rating (GALAP Galium [14]; rate 0.125 kg/ha) | ABUTH herbicidal rating (ABUTH Velvetleaf [15]; rate 0.062 kg/ha) | ABUTH herbicidal rating (ABUTH Velvetleaf [15]; rate 0.125 kg/ha) | AMBEL herbicidal rating (AMBEL Ragweed, Common [18]; rate 0.125 kg/ha) | SETVI herbicidal rating (SETVI Foxtail, Green [19]; rate 0.062 kg/ha) | SETVI herbicidal rating (SETVI Foxtail, Green [19]; rate 0.125 kg/ha)
2.5: Postemergence herbicidal rating TRZAWR ([7]; 0.008 kg/ha) | Postemergence herbicidal rating ORYSAT (ORYSAT Rice, Tebonnet [11]; 0.016 kg/ha) | GLXMAW herbicidal rating (GLXMAW Soybean, Williams [16]; rate 0.062 kg/ha)
5.0: Postemergence herbicidal rating ZEAMX (ZEAMX Corn, Field [3]; 0.032 kg/ha) | Postemergence herbicidal rating CHEAL ([13]; 0.062 kg/ha) | Postemergence herbicidal rating AMBEL (AMBEL Ragweed, Common [24]; 0.062 kg/ha)
7.5: Postemergence herbicidal rating GLXMAW (GLXMAW Soybean, Williams [23]; 0.062 kg/ha)
4.5: Postemergence herbicidal rating ZEAMX (ZEAMX Corn, Field [3]; 0.008 kg/ha) | Postemergence herbicidal rating ZEAMX (ZEAMX Corn, Field [3]; 0.016 kg/ha) | Postemergence herbicidal rating TRZAWR ([7]; 0.062 kg/ha) | AMBEL herbicidal rating (AMBEL Ragweed, Common [18]; rate 0.016 kg/ha) | SETVI herbicidal rating (SETVI Foxtail, Green [19]; rate 0.016 kg/ha) | Postemergence herbicidal rating GLXMAW (GLXMAW Soybean, Williams [23]; 0.008 kg/ha)
